Reference: patent US5352804A, “Isolation and structure of Halistatin 2” (Arizona Board of Regents, a body corporate, acting on …, priority 1993, dated 1994)
“Also recorded” adds a separate entry of the source. Like-named read-outs stand apart in the source and are kept apart here.

Assays:
[1] = test system: L1210 murine leukemia cells; assay: mitotic index (accumulation of cells arrested in mitosis); type: cell-based; conditions: at cytotoxic concentrations
ACHN = assay: NCI human tumor in vitro primary screen; type: cell-based; conditions: renal cancer
From the text: (§1) Only two hundred years ago, many diseases ravaged humankind. Many of these diseases now have been controlled or eradicated. In the development of the means to treat or control these diseases, work with the appropriate common experimental animals was of critical importance. With the various types of cancers, and with the HIV virus, such work is presently ongoing. The research for the treatment of various types of cancer is coordinated in the United States by the National Cancer Institute (NCI). NCI, as a government entity, has been charged with assisting anti-cancer research. To establish whether a substance has anti cancer activity, NCI has established a variety of protocols, one of which involves testing the candidate substance against a cell line panel containing 60 human tumor cell lines. This protocol has been verified and is generally accepted throughout the scientific community. This protocol and the established statistical means of evaluating the results obtained therefrom have been fully described in the literature. See Principles & Practice of Oncology PPO Updates, Volume 3, Number 10, Oct. 1989, by Michael R. Boyd, M.D., Ph.D., for an indepth description of the test protocol. The statistical analysis is explained in "Display and Analysis of Patterns of Differential Activity of Drugs Against Human Tumor Cell Lines: Development of Means Graph and COMPARE Algorithm" Journal of the National Cancer Institute Reports Vol. 81, No. 14, Pg. 1088, Jul. 14, 1989, by K. D. Paull et al. Both of these references are incorporated herein by this reference thereto.
(§2) Biological Testing; Data Display and Analysis; Screening Data Summary. Freshly isolated halistatin 2 was tested in the NCI's human tumor, disease-oriented in vitro primary screen, and data calculations performed. Table 3 is a composite prepared from mean graphs constructed from the averaged GI50 values from quadruplicate screenings of Halistatin 2.

RPMI-8226 = assay: NCI human tumor in vitro primary screen; type: cell-based; conditions: leukemia
From the text: as §1, §2

COLO 205 = assay: NCI human tumor in vitro primary screen; type: cell-based; conditions: colon cancer
From the text: as §1, §2

SNB-78 = assay: NCI human tumor in vitro primary screen; type: cell-based; conditions: CNS cancer
From the text: as §1, §2

SF-268 = assay: NCI human tumor in vitro primary screen; type: cell-based; conditions: CNS cancer
From the text: as §1, §2

NCI-H226 = assay: NCI human tumor in vitro primary screen; type: cell-based
From the text: as §1, §2

SF-539 = assay: NCI human tumor in vitro primary screen; type: cell-based; conditions: CNS cancer
From the text: as §1, §2

KM 20L2 = assay: NCI human tumor in vitro primary screen; type: cell-based
From the text: as §1, §2

HCT-116 = assay: NCI human tumor in vitro primary screen; type: cell-based; conditions: colon cancer
From the text: as §1, §2

OVCAR-5 = assay: NCI human tumor in vitro primary screen; type: cell-based; conditions: ovarian cancer
From the text: as §1, §2

[2] = test system: L1210 murine leukemia cells; assay: cytotoxicity in L1210 murine leukemia cells; type: cell-based
human tumor cell lines = assay: cells; type: cell-based
tubulin [3] = assay: binding of radiolabeled vinblastine to tubulin
[4] = test system: P388 lymphocytic leukemia; assay: P388 lymphocytic leukemia in vivo (NCI protocol); conditions: 40 μg/kg host body weight, BDF mice
Description: When BDF, mice were treated with 40 μg/kg host body weight of halistatin 2.

tubulin [5] = assay: radiolabeled GTP binding to tubulin / nucleotide exchange on tubulin
From the text: For radiolabeled GTP binding to tubulin, the same drug concentrations inhibited the reaction by 17% and 51% with halistatin 2.

NCI-H322M = assay: cells; type: cell-based; conditions: Homo sapiens
[6] = read-out: Log10 GI50 (converted)
[7] = read-out: Log10 TGI (converted)
[8] = read-out: averaged negative log10 GI50 (converted)

SMILES: C=C1CC2CCC34CC5OC6C(O3)C3OC(CCC3OC6(O)C5O4)CC(=O)OC3C(CC4OC(CCC1O2)CC(C)C4=C)OC1CC2OC4(CC2OC1C3C)CC1OC2(CC(C)C3OC5CC(C(O)CO)OC5CC3O2)CC(C)C1O4 (stereo not shown) [halistatin 2]
- mitotic arrest / rise in mitotic index (in words) [1]: caused a significant rise in the mitotic index; also recorded: caused the accumulation of cells arrested in mitosis
- mitotic index [1]: ≤ 20%
- GI50 (ACHN; [6]): 4.37 nM
- IC (TGI) (ACHN; [7]): 10 nM
- GI50 (ACHN; [8]): 4.37 nM
- GI50 (RPMI-8226; [6]): 0.407 nM
- IC (TGI) (RPMI-8226; [7]): 10 nM
- GI50 (RPMI-8226; [8]): 0.407 nM
- GI50 (COLO 205; [6]): 0.219 nM
- IC (TGI) (COLO 205; [7]): 1.51 nM
- GI50 (COLO 205; [8]): 0.219 nM
- GI50 (SNB-78; [6]): 0.12 nM
- IC (TGI) (SNB-78; [7]): 10 nM
- GI50 (SNB-78; [8]): 0.12 nM
- GI50 (SF-268; [6]): 1.82 nM
- IC (TGI) (SF-268; [7]): 10 nM
- GI50 (SF-268; [8]): 1.82 nM
- GI50 (NCI-H226; NCl-H226, non-small cell lung cancer, read-out: Log10 GI50 (converted)): 0.724 nM
- IC (TGI) (NCI-H226; NCl-H226, non-small cell lung cancer, read-out: Log10 TGI (converted)): 3.72 nM
- GI50 (NCI-H226; non-small cell lung cancer, read-out: averaged negative log10 GI50 (converted)): 0.724 nM
- GI50 (SF-539; [6]): 0.324 nM
- IC (TGI) (SF-539; [7]): 1.51 nM
- GI50 (SF-539; [8]): 0.324 nM
- GI50 (KM 20L2; KM 20L2, colon cancer, read-out: averaged negative log10 GI50 (converted)): 0.427 nM
- GI50 (KM 20L2; KM-20L2, printed KM2012, colon cancer, read-out: Log10 GI50 (converted)): 0.427 nM
- IC (TGI) (KM 20L2; KM-20L2, printed KM2012, colon cancer, read-out: Log10 TGI (converted)): 1.91 nM
- GI50 (HCT-116; [6]): 0.55 nM
- IC (TGI) (HCT-116; [7]): 10 nM
- GI50 (HCT-116; [8]): 0.55 nM
- GI50 (OVCAR-5; [6]): 1.82 nM
- IC (TGI) (OVCAR-5; [7]): 10 nM
- GI50 (OVCAR-5; [8]): 1.82 nM
- cytotoxicity (in words) [2]: significant cytotoxicity
- IC50 ([2]; Mus musculus): 0.4 nM
- potency (human tumor cell lines): especially noteworthy
- screening profile (human tumor cell lines): characteristic of a general mechanistic class of tubulin-interactive antimitotics
- GI50 (human tumor cell lines; Homo sapiens): ~0.7 nM
- inhibition of radiolabeled vinblastine binding to tubulin (in words) (tubulin [3]): inhibited the binding of radiolabeled vinblastine and GTP to tubulin
- type of inhibition of vinblastine binding (in words) (tubulin [3]): noncompetitive inhibitor
- inhibition of radiolabeled vinblastine binding to tubulin (tubulin [3]; 5 μM): 51%
- inhibition of radiolabeled vinblastine binding to tubulin (tubulin [3]; 10 μM): 75%
- cure rate [4]: 18%
- life extension of those not cured [4]: 220%
- survival rate [4]: 100%
- inhibition of nucleotide exchange on tubulin (in words) (tubulin [5]): inhibit nucleotide exchange on tubulin
- inhibition of radiolabeled GTP binding to tubulin (in words) (tubulin [5]): inhibited the binding of radiolabeled vinblastine and GTP to tubulin
- inhibition of radiolabeled GTP binding to tubulin (tubulin [5]; 5 μM): 17%
- inhibition of radiolabeled GTP binding to tubulin (tubulin [5]; 10 μM): 51%
- inhibition of nucleotide exchange, comparison (in words) (tubulin [5]; 5 and 10 μM, comparator not given): superior as an inhibitor of nucleotide exchange
- GI50 (NCI-H322M; [6]): 3.02 nM
- IC (TGI) (NCI-H322M; read-out: Log10 TGI): 10 nM
- GI50 (NCI-H322M; [8]): 3.02 nM
